Laboratory results: patent US8940760B2, “Pyrazolo pyridine derivatives as NADPH oxidase inhibitors” (Genkyotex SA, priority 2008, dated 2015)

Experiments:
NOX activity = assay: Amplex Red measurement of extracellular hydrogen peroxide (NOX activity) in DMSO-differentiated HL60 cells; format: cell-based, human; settings: DPI at final concentration of 10 μM, 'usually'
Procedure: Human acute myeloid leukemia cell line HL-60 was cultured in RPMI 1640 (Invitrogen) supplemented with 10% heat-inactivated calf serum, 2 mM glutamine, 100 U/mL penicillin (Sigma), and 100 μg streptomycin (Sigma) at 37° C. under a humidified atmosphere of 5% CO2. HL60 differentiation to the neutrophil phenotype was triggered by adding Me2SO (final concentration 1.25% v/v for 6 days) to the culture medium.
Extracellular hydrogen peroxide was measured using Amplex UltraRed (Molecular Probes). Cells were trypsinized (1× Trypsin-EDTA), collected by centrifugation, and resuspended in HBSS supplemented with 1% glucose. Cells were seeded into black 96-well plates at a density of 50,000 cells in 200 μl testing buffer (HBSS 1% glucose containing 0.005 U/mL horseradish peroxidase (Roche) and 50 μM Amplex Red in the presence or absence of compounds according to the invention. As a control, DPI was included at a final concentration of 10 μM. The plates were placed in the fluorescent Optima Fluorescent plate reader and kept at 37° C. during 20 min. Fluorescence was measured for 15 min with excitation and emission wavelengths of 544 nm and 590 nm respectively. NOX activities were expressed as % of the activity in control cells. Residual activity of DPI-treated cells was usually <10%.

NOX activities [1] = assay: Nitroblue tetrazolium (NBT) test of intracellular and extracellular superoxide in cells; format: cell-based; settings: DPI at final concentration of 10 μM, 'usually'
Procedure: Intracellular and extracellular superoxide was measured by a colorimetric technique using a quantitative nitroblue tetrazolium (NBT) test. SOD-inhibitable conversion of NBT to formazan, a fine blue precipitate, in the presence of superoxide anion was measured using Fluostar Optima spectrometer (BMG labtech). Following incubation with appropriate stimuli, cells were trypsinized (1× Trypsin-EDTA), collected by centrifugation, and washed with PBS to remove medium. 5×10^5 cells were plated on 48-well plates and incubated in Hank's balanced salt solution containing 0.5 mg/mL NBT with or without 800 U/mL SOD in the presence or absence of compounds according to the invention. As a control, DPI was included at a final concentration of 10 μM. After 2.5 h, cells were fixed and washed with methanol to remove non reduced NBT. The reduced formazan was then dissolved in 230 μl of 2M potassium hydroxide and in 280 μl of dimethylsulfoxide. The absorption was measured at 630 nm. For calculation, the absorbance at 630 nm was normalized for each individual well. The mean of the four blank values was substracted from each corrected value for each time point. NOX activities were expressed as % of the activity in control cells. Residual activity of DPI-treated cells was usually <10%.

NOX activities [2] = assay: Chemiluminescence (luminol) measurement of ROS in cells; format: cell-based; settings: 'usually'
Procedure: ROS was measured using the chemiluminescent probe luminol. Cells were cultured and plated as for Amplex Red except that the Amplex Red agent was replaced by 10 μg/mL luminol (Sigma 09235). Light emission was recorded continuously at 37° C. for 60 minutes using the luminescence function of the FluoStar Optima fluorescent plate reader. The mean of the four blank values was substracted from each corrected value for each time point. NOX activities were expressed as % of the activity in control cells. Residual activity of DPI-treated cells was usually <10%.

NOX activities [3] = assay: H2DCF-DA fluorescence in TGF-β stimulated HUVEC; format: cell-based, human; settings: HUVEC stimulated with TGF-β, 'usually'
Procedure: HUVEC are cultured in endothelial basal medium supplemented with hydrocortisone (1 μg/mL, CalbioChem), bovine brain extract (12 μg/mL), gentamicin (50 μg/mL, CalbioChem), amphotericin B (50 ng/mL, CalBioChem EGF (10 ng/mL, and 10% FCS until the fourth passage. When the fifth passage was started, cells were cultured with a lower concentration of FCS (2%) in the absence of EGF, if not indicated otherwise. All experiments were done with cells of the fifth passage. The cells were incubated with OxLDL (oxidized low-density lipoprotein) or its buffer as control for 24 h, before detection of O2^− formation.
HUVEC were plated on coverslips and made quiescent overnight in 0.5% BSA before stimulation with TGF-β. Cells were loaded for 10 minutes with 5 μM CM-H2DCFDA in phenol-red-free medium in the dark and then treated with TGF-β (R&D Systems) in the presence or absence of compounds according to the invention. Cells were then visualized by immunofluorescence microscopy after fixation and staining of the nuclei with DAPI or examined live using confocal microscopy. DCF fluorescence was visualized at an excitation wavelength of 488 nm and emission at 515 to 540 nm. […] For calculation, the absorbance at […] was normalized to absorbance at […] for each individual well. […] NOX activities were expressed as % of the activity in control cells. […]

Measured: Residual activity of DPI-treated cells (NOX activity as % of control cells)

c1ccc([I+]c2ccccc2)cc1 [DPI, Diphenyl-iodonium]
< 10%: all assays above
